Experimental data as given in US9067871B2, “Aminotetraline derivatives, pharmaceutical compositions containing them, and their use in therapy” (ABBVIE DEUTSCHLAND GMBH & CO KG, priority 2009, dated 2015).
pKi: −log10 of the molar value. Where a name gives a salt, the structure may show the parent alone. Read-outs that look alike come from different tables or passages of the source.

Molecular target: human GlyT1c transporter (Homo sapiens (Human), UniProt P48067)
Assay: Radioligand binding assay using recombinant CHO cell membranes expressing human GlyT1
Conditions: human GlyT1c-expressing CHO cell membranes, read-out: radioligand binding Kiapp
Description: 2. Radioligand binding assays using recombinant CHO cell membranes expressing human GlyT1: […]

human GlyT1c transporter, sequence (P48067 whole entry): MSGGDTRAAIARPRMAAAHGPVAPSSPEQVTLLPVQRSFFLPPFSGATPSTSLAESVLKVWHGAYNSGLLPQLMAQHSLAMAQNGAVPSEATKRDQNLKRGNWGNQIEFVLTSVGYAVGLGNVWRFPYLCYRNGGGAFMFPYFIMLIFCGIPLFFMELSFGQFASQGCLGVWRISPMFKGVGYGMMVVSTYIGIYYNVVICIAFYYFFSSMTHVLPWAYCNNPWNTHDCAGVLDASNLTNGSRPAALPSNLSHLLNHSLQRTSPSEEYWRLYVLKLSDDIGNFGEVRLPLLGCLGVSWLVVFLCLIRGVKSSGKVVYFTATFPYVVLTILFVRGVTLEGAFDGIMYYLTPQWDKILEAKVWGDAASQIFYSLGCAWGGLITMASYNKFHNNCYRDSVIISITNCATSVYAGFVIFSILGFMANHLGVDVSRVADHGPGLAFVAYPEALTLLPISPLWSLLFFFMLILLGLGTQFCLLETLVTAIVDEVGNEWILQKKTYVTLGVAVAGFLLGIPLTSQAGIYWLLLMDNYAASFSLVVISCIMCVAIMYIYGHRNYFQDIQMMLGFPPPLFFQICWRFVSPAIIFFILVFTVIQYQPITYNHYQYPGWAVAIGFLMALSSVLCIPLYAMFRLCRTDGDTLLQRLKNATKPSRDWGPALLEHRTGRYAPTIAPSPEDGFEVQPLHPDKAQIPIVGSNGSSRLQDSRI

Compound | pKi | pKi (hydrochloride)
CNC1CCc2ccc(CNS(=O)(=O)c3ccn(C)n3)cc2C1Cc1ccccc1 (centres unmarked) [Example 191, N-{[8-Benzyl-7-(methylamino)-5,6,7,8-tetrahydronaphthalen-2-yl]methyl}-1-methyl-1H-pyrazole-3-sulfonamide hydrochloride] | ≥ 6.00 | 
CCCS(=O)(=O)NCCCc1ccc2c(c1)C(Cc1ccccc1Cl)C(N)CC2 (centres unmarked) [Example 211, N-{3-[7-Amino-8-(2-chlorobenzyl)-5,6,7,8-tetrahydronaphthalen-2-yl]propyl}propane-1-sulfonamide hydrochloride] | ≥ 6.00 | 
CCCS(=O)(=O)NCCCc1ccc2c(c1)C(Cc1cccc(F)c1)C(NC(C)=O)CC2 (centres unmarked) [Example 214, N-[1-(3-Fluorobenzyl)-7-{3-[(propylsulfonyl)amino]propyl}-1,2,3,4-tetrahydronaphthalen-2-yl]acetamide] | ≥ 5.00 | 
CCCS(=O)(=O)NCCCc1ccc2c(c1)C(Cc1ccc(F)cc1)C(NCC)CC2 (centres unmarked) [Example 220, N-{3-[7-(Ethylamino)-8-(4-fluorobenzyl)-5,6,7,8-tetrahydronaphthalen-2-yl]propyl}propane-1-sulfonamide hydrochloride] | ≥ 6.00 | 
CCCS(=O)(=O)N1CC(c2ccc3c(c2)C(Cc2ccccc2)C(N)CC3)C1 (centres unmarked) [Example 284, 1-Benzyl-7-[1-(propane-1-sulfonyl)-azetidin-3-yl]-1,2,3,4-tetrahydro-naphthalen-2-ylamine hydrochloride] | ≥ 6.00 | 
CCCCS(=O)(=O)NCCOc1ccc2c(c1)C(Cc1ccc(Cl)c(Cl)c1)C(N)CC2 (centres unmarked) [Example 90, Butane-1-sulfonic acid {2-[7-amino-8-(3,4-dichloro-benzyl)-5,6,7,8-tetrahydro-naphthalen-2-yloxy]-ethyl}-amide hydrochloride] | ≥ 6.00 | 
CC(C)NC1CCc2ccc(OCCNS(=O)(=O)CC3CC3)cc2C1Cc1cccc(C#N)c1 (centres unmarked) [Example 156, N-(2-{[8-(3-Cyanobenzyl)-7-(propan-2-ylamino)-5,6,7,8-tetrahydronaphthalen-2-yl]oxy}ethyl)-1-cyclopropylmethanesulfonamide hydrochloride] | ≥ 6.00 | 
CCCS(=O)(=O)NCCOc1ccc2c(c1)C(CC1CCCCC1)C(NC)CC2 (centres unmarked) [Example 314, Propane-1-sulfonic acid [2-(8-cyclohexylmethyl-7-methylamino-5,6,7,8-tetrahydronaphthalen-2-yloxy)-ethyl]-amide trifluoroacetate] | ≥ 6.00 | 
NC1CCc2ccc(CCNS(=O)(=O)CC3CC3)cc2C1Cc1cccc(Cl)c1 (centres unmarked) [Example 310, N-{2-[7-Amino-8-(3-chloro-benzyl)-5,6,7,8-tetrahydro-naphthalen-2-yl]-ethyl}-C-cyclopropyl-methanesulfonamide hydrochloride] | ≥ 6.00 | 
CNC1CCc2ccc(CNS(=O)(=O)C3CCC3)cc2C1Cc1ccccc1 (centres unmarked) [Example 188, N-{[8-Benzyl-7-(methylamino)-5,6,7,8-tetrahydronaphthalen-2-yl]methyl}cyclobutanesulfonamide hydrochloride] | ≥ 7.00 | 
CNC1CCc2ccc(OCCNS(=O)(=O)c3cn(C)cn3)cc2C1Cc1ccccc1Cl (centres unmarked) [Example 303, 1-Methyl-1H-imidazole-4-sulfonic acid {2-[8-(2-chloro-benzyl)-7-methylamino-5,6,7,8-tetrahydro-naphthalen-2-yloxy]-ethyl}-amide hydrochloride] | ≥ 7.00 | 
CNC1CCc2ccc(OCCNS(=O)(=O)CC3CC3)cc2C1Cc1cc(F)cc(F)c1 (single isomer, unassigned; enantiomer 1) [Example 245, Enantiomer 1 of 1-cyclopropyl-N-(2-{[8-(3,5-difluorobenzyl)-7-(methylamino)-5,6,7,8-tetrahydronaphthalen-2-yl]oxy}ethyl)methanesulfonamide hydrochloride] | ≥ 6.00 | 
CCCS(=O)(=O)NCCc1ccc2c(c1)C(Cc1cccc(Cl)c1)C(N)CC2 (centres unmarked) [Example 304, Propane-1-sulfonic acid {2-[7-amino-8-(3-chloro-benzyl)-5,6,7,8-tetrahydro-naphthalen-2-yl]-ethyl}-amide hydrochloride] | ≥ 6.00 | 
CCCS(=O)(=O)NCCOc1ccc2c(c1)C(Cc1cccc(F)c1)C(N)CC2 (centres unmarked) [Example 107, Propane-1-sulfonic acid {2-[7-amino-8-(3-fluoro-benzyl)-5,6,7,8-tetrahydro-naphthalen-2-yloxy]-ethyl}-amide hydrochloride] | ≥ 7.00 | 
O=S(=O)(CC1CC1)NCCOc1ccc2c(c1)C(Cc1ccccc1)C(N1CCC1)CC2 (centres unmarked) [Example 142, N-(2-{[7-(Azetidin-1-yl)-8-benzyl-5,6,7,8-tetrahydronaphthalen-2-yl]oxy}ethyl)-1-cyclopropylmethanesulfonamide hydrochloride] |  | ≥ 7.00
CCCS(=O)(=O)NCCCc1ccc2c(c1)C(Cc1ccc(F)cc1)C(NC(C)=O)CC2 (centres unmarked) [Example 215, N-[1-(4-Fluorobenzyl)-7-{3-[(propylsulfonyl)amino]propyl}-1,2,3,4-tetrahydronaphthalen-2-yl]acetamide] | ≥ 5.00 | 

The next lines start with the values.

pKi | pKi (hydrochloride) | Compound
≥ 7.00 |  | CCCS(=O)(=O)NCCCc1ccc2c(c1)C(Cc1cccc(F)c1)C(NCC)CC2 (centres unmarked) [Example 219, Propane-1-sulfonic acid {3-[7-ethylamino-8-(3-fluoro-benzyl)-5,6,7,8-tetrahydronaphthalen-2-yl]-propyl}-amide hydrochloride]
≥ 8.00 |  | CNC1CCc2ccc(CNS(=O)(=O)c3ccn(C)c3)cc2C1Cc1ccccc1 (centres unmarked) [Example 190, N-{[8-Benzyl-7-(methylamino)-5,6,7,8-tetrahydronaphthalen-2-yl]methyl}-1-methyl-1H-pyrrole-3-sulfonamide hydrochloride]
≥ 7.00 |  | CCCS(=O)(=O)NCCOc1ccc2c(c1)C(Cc1ccccc1)C(N1CCC1)CC2 (centres unmarked) [Example 148, Propane-1-sulfonic acid [2-(7-azetidin-1-yl-8-benzyl-5,6,7,8-tetrahydro-naphthalen-2-yloxy)-ethyl]-amide]
≥ 7.00 |  | CNC1CCc2ccc(CCNS(=O)(=O)c3cn(C)cn3)cc2C1Cc1cccc(Cl)c1 (centres unmarked) [Example 313, 1-Methyl-1H-imidazole-4-sulfonic acid {2-[8-(3-chloro-benzyl)-7-methylamino-5,6,7,8-tetrahydro-naphthalen-2-yl]-ethyl}-amide]
≥ 8.00 |  | Cn1ccc(S(=O)(=O)NCc2ccc3c(c2)C(Cc2ccccc2)C(N)CC3)c1 (centres unmarked) [Example 180, N-{[7-Amino-8-benzyl-5,6,7,8-tetrahydronaphthalen-2-yl]methyl}-1-methyl-1H-pyrrole-3-sulfonamide hydrochloride]
≥ 7.00 |  | CCCS(=O)(=O)N(CCOc1ccc2c(c1)C(Cc1cccc(Cl)c1)C(N)CC2)C1CC1 (centres unmarked) [Example 281, Propane-1-sulfonic acid {2-[7-amino-8-(3-chloro-benzyl)-5,6,7,8-tetrahydro-naphthalen-2-yloxy]-ethyl}-cyclopropyl-amide hydrochloride]
≥ 8.00 |  | Cn1cnc(S(=O)(=O)NCCOc2ccc3c(c2)C(Cc2ccccc2)C(N2CCC(F)C2)CC3)c1 (centres unmarked) [Example 152, N-[2-({8-Benzyl-7-[3-fluoropyrrolidin-1-yl]-5,6,7,8-tetrahydronaphthalen-2-yl}oxy)ethyl]-1-methyl-1H-imidazole-4-sulfonamide hydrochloride]
≥ 8.00 |  | Cn1cc(S(=O)(=O)NCc2ccc3c(c2)C(Cc2ccccc2)C(N2CCC2)CC3)cn1 (single isomer, unassigned; enantiomer 1) [Example 254, Enantiomer 1 of N-{[7-(azetidin-1-yl)-8-benzyl-5,6,7,8-tetrahydronaphthalen-2-yl]methyl}-1-methyl-1H-pyrazole-4-sulfonamide]
≥ 7.00 |  | NC1CCc2ccc(CCCNS(=O)(=O)CC3CC3)cc2C1Cc1cccc(F)c1 (centres unmarked) [Example 210, N-{3-[7-Amino-8-(3-fluorobenzyl)-5,6,7,8-tetrahydronaphthalen-2-yl]propyl}-1-cyclopropylmethanesulfonamide hydrochloride]
≥ 7.00 |  | O=S(=O)(CC1CC1)NCCOc1ccc2c(c1)C(Cc1cccc(Cl)c1)C(N1CCC1)CC2 (centres unmarked) [Example 320, N-{2-[7-Azetidin-1-yl-8-(3-chloro-benzyl)-5,6,7,8-tetrahydro-naphthalen-2-yloxy]-ethyl}-C-cyclopropyl-methanesulfonamide]
≥ 7.00 |  | O=S(=O)(NCCOc1ccc2c(c1)C(Cc1ccc(Cl)c(Cl)c1)C(N1CCCC1)CC2)C1CCC1 (centres unmarked) [Example 88, Cyclobutanesulfonic acid {2-[8-(3,4-dichloro-benzyl)-7-pyrrolidin-1-yl-5,6,7,8-tetrahydronaphthalen-2-yloxy]-ethyl}-amide hydrochloride]
≥ 7.00 |  | NC1CCc2ccc(OCCNS(=O)(=O)c3ccccc3)cc2C1Cc1ccccc1 (centres unmarked) [Example 99, N-[2-(7-Amino-8-benzyl-5,6,7,8-tetrahydro-naphthalen-2-yloxy)-ethyl]-benzenesulfonamide hydrochloride]
≥ 8.00 |  | Cn1cc(S(=O)(=O)NCc2ccc3c(c2)C(Cc2cccc(F)c2)C(N)CC3)cn1 (centres unmarked) [Example 178, N-{[7-Amino-8-(3-fluorobenzyl)-5,6,7,8-tetrahydronaphthalen-2-yl]methyl}-1-methyl-1H-pyrazole-4-sulfonamide hydrochloride]
≥ 7.00 |  | O=S(=O)(CC1CC1)NCCOc1ccc2c(c1)C(Cc1ccc(Cl)c(Cl)c1)C(N1CCCC1)CC2 (centres unmarked) [Example 132, C-Cyclopropyl-N-{2-[8-(3,4-dichloro-benzyl)-7-pyrrolidin-1-yl-5,6,7,8-tetrahydronaphthalen-2-yloxy]-ethyl}-methanesulfonamide hydrochloride]
≥ 8.00 |  | Cc1cccc(CC2c3cc(OCCNS(=O)(=O)c4cn(C)cn4)ccc3CCC2N2CCCC2)c1 (centres unmarked) [Example 163, 1-Methyl-N-(2-{[8-(3-methylbenzyl)-7-(pyrrolidin-1-yl)-5,6,7,8-tetrahydronaphthalen-2-yl]oxy}ethyl)-1H-imidazole-4-sulfonamide]
≥ 8.00 |  | Cn1cnc(S(=O)(=O)NCc2ccc3c(c2)C(Cc2ccccc2)C(N2CCC2)CC3)c1 (centres unmarked) [Example 248, N-{[7-(Azetidin-1-yl)-8-benzyl-5,6,7,8-tetrahydronaphthalen-2-yl]methyl}-1-methyl-1H-imidazole-4-sulfonamide]
